Measurements from paper PMC7596181 (Frontiers in Immunology, 2020).

What was measured:
human TLR4 [1] = target: T1, human TLR4 (Homo sapiens, UniProt O00206+Q9Y6Y9); test: SEAP assay, agonist dose response in human TLR4 HEK-Blue reporter cells; type: cell-based; set-up: host or cells: HEK-Blue (HEK293-derived) reporter cells; conditions: human TLR4 HEK-Blue reporter cells
Description: Human and mouse HEK-Blue reporter cells express human or mouse CD14, MD2, and TLR4 and secreted embryonic alkaline phosphatase (SEAP) under control of a promoter with binding sites for NFκB and AP-1 transcription factors (InvivoGen cat. nos. hkb-htlr4 and hkb-mtlr4). Cells were cultured as directed by the supplier, with the exception that Glutamax (ThermoFisher cat. no. 10569010) was used in place of L-glutamine, and TrypLE Express (ThermoFisher cat. no. 12605010) was used to release adherent cells for each passage. BALB/c mouse RAW264.7 and human THP-1 cells (ATCC® cat. nos. TIB-71 and TIB-202) were cultured in DMEM (4.5 g/L D-Glucose with 2 mM L-glutamine, 1 mM sodium pyruvate, 100 U/ml penicillin and 100 μg/ml streptomycin) supplemented with 10% heat-inactivated FBS. THP-1 cells were exposed to phorbol-12-myristate-13-acetate (PMA, InvivoGen cat no. tlrl-pma), 5 ng/ml, for 48 h prior to treatment with TLR4 agonists. Bone marrow-derived dendritic cells (BMDCs) were generated using C57BL/6 mouse femurs following the exact method published by Lutz et al. ([29]) except that 5 rather than 20 ng/ml recombinant GM-CSF was used to differentiate the DC. Human peripheral blood […] (PBMCs) were prepared from venous blood of healthy volunteers that had been collected using sodium citrate as anti-coagulant, 20 ml of which was mixed with 15 ml calcium- and magnesium-free Hank’s Balanced Saline Solution (HBSS) and then laid over 6 ml Histopaque®-1077 (1.077 g/ml, Sigma-Aldrich cat no. 10771) for density gradient centrifugation. The buffy coat layer was collected by pipette, washed once in HBSS, once in serum-free RPMI-1640, and then the PBMCs were resuspended in RPMI-1640 supplemented with 100 U/ml penicillin, 100 µg/ml streptomycin, 1 mM Na-Pyruvate, 2 mM L-glutamine, 50 μM βME and 10% heat-inactivated, male AB human serum for culture.
(§1) SEAP assays were performed to evaluate the extent to which TLR4 signaling was activated in HEK-Blue reporter cells expressing mouse or human receptors (CD14, MD2 and TLR4). Reporter cells were harvested when 70–80% confluent and plated in 96-well, flat-bottom microtiter plates either 1 h, one day or two days (5 × 10^4, 4 × 10^4 or 2 × 10^4 cells/well, respectively) before addition of TLR4 agonists for 18–24 h. Culture supernatants were transferred to U-bottom microtiter plates, centrifuged and transferred again to microtiter plates to ensure reporter cells were not present. The culture supernatants were added to QUANTI-BLUE substrate following instructions provided by the manufacturer (InvivoGen cat. nos. rep-qbl or rep-qbs) and incubated at 37°C in a tissue culture incubator. At successive intervals beginning 10 min after mixing the supernatants and substrate, the plates were placed in an Emax plate reader (Molecular Devices LLC) and optical density was measured at visible light wavelength […] (OD650). The shortest incubations at which dose response curve fits produced maximal R^2 ‘goodness of fit’ values, as determined by GraphPad Prism software, were used for analysis.
Pharmacological profiles of the TLR4 reagents were generated by performing dose response curves in one of four formats. 1) Agonist potency and efficacy (EC50 and height of dose plateau, respectively) were measured by diluting TLR4 reagents successively in complete culture medium [DMEM or RPMI supplemented with fetal bovine serum (FBS) or RPMI supplemented with human serum, depending on cell-type]. Half-log step dilutions were performed in 96-well, U-bottom microtiter plates using a multichannel pipette to transfer and mix the suspensions, with fresh tips used for each dilution step. One-tenth (20 μl) volumes from wells of the dilution plate were then transferred to wells containing cells that had been plated in nine-tenth volumes (180 μl) of culture medium. […]

human TLR4 [2] = target: T1, human TLR4; test: Inhibition curves (IC50 format): antagonist diluted in a fixed concentration of reference agonist, human TLR4 HEK-Blue SEAP; type: cell-based; set-up: host or cells: HEK-Blue (HEK293-derived) reporter cells; conditions: for inhibition of 3D-6A-PHAD stimulation: fixed 3D-6A-PHAD 300 nM; for IC50: 95% CI given; for inhibition of PHAD stimulation: fixed PHAD 1 μM, 22 h
Description: as §1
Pharmacological profiles of the TLR4 reagents were generated by performing dose response curves in one of four formats. 1) Agonist potency and efficacy (EC50 and height of dose plateau, respectively) were measured by diluting TLR4 reagents successively in complete culture medium [DMEM or RPMI supplemented with fetal bovine serum (FBS) or RPMI supplemented with human serum, depending on cell-type]. Half-log step dilutions were performed in 96-well, U-bottom microtiter plates using a multichannel pipette to transfer and mix the suspensions, with fresh tips used for each dilution step. One-tenth (20 μl) volumes from wells of the dilution plate were then transferred to wells containing cells that had been plated in nine-tenth volumes (180 μl) of culture medium. 2) Mixed agonist–antagonist potency and efficacy were measured by mixing a TLR4 agonist with a candidate antagonist at a fixed ratio and then performing half-log step dilutions before treating HEK reporter cells. Analysis of values obtained from SEAP assays of culture supernatants was then performed as described for preparations containing agonist alone, above. 3) Competitive vs allosteric or non-competitive antagonist type was evaluated by diluting a reference agonist within a fixed concentration of a candidate inhibitor in half-log steps, treating HEK reporter cells, performing SEAP assays and then analyzing the data as described for agonist assays, above. Competitive antagonists are characterized by values that reach the same dose plateau as for a reference, full agonist, while shifting potency to higher EC50 values. […] 4) Inhibitory potency (IC50) was measured by diluting antagonists within a fixed concentration of a reference agonist, treating HEK reporter cells and performing SEAP assays as described.

T1 sequence (O00206 24-839): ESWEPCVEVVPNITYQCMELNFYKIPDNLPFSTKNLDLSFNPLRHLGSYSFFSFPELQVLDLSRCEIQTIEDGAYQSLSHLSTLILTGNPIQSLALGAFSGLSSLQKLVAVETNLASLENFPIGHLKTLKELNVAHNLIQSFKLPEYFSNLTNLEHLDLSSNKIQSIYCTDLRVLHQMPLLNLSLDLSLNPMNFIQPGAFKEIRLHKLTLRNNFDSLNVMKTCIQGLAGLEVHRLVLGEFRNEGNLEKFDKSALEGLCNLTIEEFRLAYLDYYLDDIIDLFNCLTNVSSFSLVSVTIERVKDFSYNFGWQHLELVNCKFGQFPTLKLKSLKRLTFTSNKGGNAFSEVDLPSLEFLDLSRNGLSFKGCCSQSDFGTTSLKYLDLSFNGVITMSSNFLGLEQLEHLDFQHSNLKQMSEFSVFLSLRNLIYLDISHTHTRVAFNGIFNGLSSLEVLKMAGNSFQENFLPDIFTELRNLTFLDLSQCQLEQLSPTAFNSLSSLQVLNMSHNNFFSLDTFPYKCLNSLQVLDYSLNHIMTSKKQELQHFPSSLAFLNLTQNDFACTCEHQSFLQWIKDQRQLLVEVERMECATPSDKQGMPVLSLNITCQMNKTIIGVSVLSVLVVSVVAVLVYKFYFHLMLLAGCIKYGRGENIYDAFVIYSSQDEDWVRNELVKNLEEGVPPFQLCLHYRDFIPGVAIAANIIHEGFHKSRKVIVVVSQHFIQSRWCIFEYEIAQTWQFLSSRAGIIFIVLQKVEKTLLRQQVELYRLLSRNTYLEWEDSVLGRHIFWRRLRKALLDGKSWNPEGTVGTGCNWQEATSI
T1 sequence (Q9Y6Y9 17-160 limits assumed): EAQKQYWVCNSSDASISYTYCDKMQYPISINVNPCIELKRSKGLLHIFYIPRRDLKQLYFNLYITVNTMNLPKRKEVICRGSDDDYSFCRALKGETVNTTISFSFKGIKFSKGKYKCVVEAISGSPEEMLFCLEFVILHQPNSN

| SMILES | agonist profile (human TLR4 [1]) | inhibition of 3D-6A-PHAD stimulation (human TLR4 [2]) | extent of inhibition at high dose (human TLR4 [2]; fixed PHAD 30 nM, peak dose 31.6 μM) | IC50 (human TLR4 [2]; fixed PHAD 30 nM) | inhibition of PHAD stimulation (human TLR4 [2]) |
| --- | --- | --- | --- | --- | --- |
| CCCCCCCCCCCC(=O)OC(CCCCCCCCCCC)CC(=O)NC1C(OCC2OC(O)C(NC(=O)CC(O)CCCCCCCCCCC)C(O)C2O)OC(CO)C(OP(=O)(O)O)C1OC(=O)CC(O)CCCCCCCCCCC (centres unmarked) [ML4A] | all but inactive | functioned as inhibitors | approach a bottom plateau rather than achieving full inhibition | 0.4 µM | showed inhibitory potential |
| CCCCCCCCCCCC(=O)OC(CCCCCCCCCCC)CC(=O)NC1C(OCC2OC(O)C(NC(=O)CC(O)CCCCCCCCCCC)C(O)C2O)OC(CO)C(OP(=O)(O)O)C1O (centres unmarked) [ML3] | largely inactive | functioned as inhibitors | – | 1.32 µM | showed inhibitory potential |
| CCCCCCCCCCCCCCCC(=O)OC(CCCCCCCCCCC)CC(=O)NC1C(O)OC(COC2OC(CO)C(OP(=O)(O)O)C(O)C2NC(=O)CC(CCCCCCCCCCC)OC(=O)CCCCCCCCCCC)C(O)C1O (centres unmarked) [ML4B] | largely inactive | – | – | – | only ML3 and ML4A showed inhibitory potential |
